How the values were obtained:
Type in all cases: in vitro ADME
[1] = system: human liver microsomes
Method: Livers were obtained from organ donors according to procedures is approved by the University of Queensland ethics committees. Samples of human liver were frozen in liquid nitrogen and stored at −70° C. prior to use. Microsomes were prepared according to the method of Guengerich except that microsomes were subjected to a final wash in 10 mM Tris-acetate, 1 mM EDTA and 20% glycerol pH 7.4 (resuspension buffer) to remove residual drugs (e.g. phenytoin—data not shown) present in donor livers.
Incubations (0.5 mL) with tissue fractions contained either the microsomal fraction at […] or the cytosolic fraction at 5 mg/mL protein in 100 mM potassium phosphate (pH 7.4) supplemented with is substrates (synthetic alkylamides 6, 11, 3 and 12 or the alkylamide fraction from the ethanolic liquid as required—see Figure legends for concentrations used) added from ethanolic stocks. Final ethanol concentrations were either 0.70% or 0.96% and were consistent in each assay. Reactions were initiated by the addition of an NADPH-generating system consisting of (final concentrations) […] NADP+, 10 mM glucose-6-phosphate and 0.5 μ/mL glucose-6-phosphate dehydrogenase. Negative controls and cytosolic incubations lacked an NADPH-generating system. Reaction mixtures were incubated at 37° C. with gentle agitation for the duration of each experiment. Reactions were terminated by addition of an equal volume of 100% methanol to a sample aliquot. Diluted samples were then centrifuged at 16000×g for 2 minutes and supernatants stored at −20° C. until analysis by LCMS.
Alkylamide concentrations in samples were determined by LCMS using a gradient HPLC system (Shimadzu LC1OAT) coupled to a quadrupole mass spectrometer (Shimadzu, QP8000a) operating in positive SIM mode with an APCI interface. The mobile phases were a mixture of water and acetonitrile. Alkylamides 6 and 3 were detected using a 65% acetonitrile isocratic run. Alkylamides 11 and 12 were detected using an 85% acetonitrile isocratic run. The alkylamide fraction was analysed using a gradient that increased from 20% to 40% acetonitrile over the first 5 minutes, then to 80% acetonitrile over the following 15 minutes and to 100% over the next 3 minutes followed by a re-equilibration period at 20% acetonitrile prior to the next injection. A similar gradient was used in scan and then SIM (M+1 of 248, 264, 246, 192, 280 and 282) modes to identify metabolites of 3. A C18, 3 m, 100×2.00 mm Phenomenex Luna column was used with a solvent flow rate of 0.3 mL/minute. All alkylamides were linear in the range 0.001-10 mg/mL (R^2>0.9) with a coefficient of variation between 4 and 5.
A number of pure, synthetic alkylamides (6, 11 3 and 12 as shown in FIG. 1) as well as the complex mixture of alkylamides obtained from an ethanolic extract of Echinacea were investigated for their susceptibility to liver P450-mediated degradation in microsomal preparations from four different subjects. The concentration of each substrate remaining at the given time points was quantified with LCMS and rates of substrate depletion were calculated as a percentage of the original concentration. […] From FIG. 3 it can be seen that there was a clear difference in the ability of the liver microsomal P450s to metabolise the synthetic 2-ene and the 2,4-diene alkylamides. […] In contrast, the 2,4-dienes were rapidly metabolised with only 9±2% of the original concentration of 3 and 2±1% of the original concentration of 12 detected after 2 hours. […]

[2] = target: T1, P450 2A13 (Homo sapiens, UniProt Q16696); experiment: metabolism of 3 by recombinant human P450; details: recombinant P450 2A13, preliminary screen
T1 construct: made in house; host or cells: Escherichia coli, bacterial membrane fraction
T1 sequence (Q16696 1-494): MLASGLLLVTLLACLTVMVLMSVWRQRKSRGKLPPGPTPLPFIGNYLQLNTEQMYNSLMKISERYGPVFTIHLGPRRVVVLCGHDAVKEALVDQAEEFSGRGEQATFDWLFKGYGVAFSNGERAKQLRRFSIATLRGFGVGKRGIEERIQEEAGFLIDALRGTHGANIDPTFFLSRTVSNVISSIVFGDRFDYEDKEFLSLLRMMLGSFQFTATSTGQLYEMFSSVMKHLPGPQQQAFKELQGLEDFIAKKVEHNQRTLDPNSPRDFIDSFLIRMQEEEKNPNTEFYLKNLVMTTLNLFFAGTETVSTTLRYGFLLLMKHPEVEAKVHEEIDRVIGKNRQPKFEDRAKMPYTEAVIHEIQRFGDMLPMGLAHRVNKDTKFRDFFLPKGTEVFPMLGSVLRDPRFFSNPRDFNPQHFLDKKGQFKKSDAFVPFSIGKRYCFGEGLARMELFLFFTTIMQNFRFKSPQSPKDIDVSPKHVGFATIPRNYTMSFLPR

[3] = system: liver P450; experiment: inhibition of 2,4-diene alkylamide metabolism by co-incubation with a 2-ene alkylamide in human liver microsomes; details: co-incubation of 3 with 6 at equimolar concentrations, 90 minutes
Method: Compound 3 was present at 20 μM in all experiments while 6 was present at (●) 0, (∘) 0.22, (▪) 2.2, ( ) 5.5, (▴) 9.0 and (Δ) 20 uM. Each point represents the mean for one microsomal preparation examined in duplicate. The deviation was less than 15 for each point.
Incubations (0.5 mL) with tissue fractions contained either the microsomal fraction at 0.1-0.2 mM P450 or the cytosolic fraction at 5 mg/mL protein in 100 mM potassium phosphate (pH 7.4) supplemented with is substrates (synthetic alkylamides 6, 11, 3 and 12 or the alkylamide fraction from the ethanolic liquid as required—see Figure legends for concentrations used) added from ethanolic stocks. Final ethanol concentrations were either 0.70% or 0.96% and were consistent in each assay. Reactions were initiated by the addition of an NADPH-generating system consisting of (final concentrations) 250 mM NADP+, 10 mM glucose-6-phosphate and 0.5 μ/mL glucose-6-phosphate dehydrogenase. Negative controls and cytosolic incubations lacked an NADPH-generating system. Reaction mixtures were incubated at 37° C. with gentle agitation for the duration of each experiment. Reactions were terminated by addition of an equal volume of 100% methanol to a sample aliquot. Diluted samples were then centrifuged at 16000×g for 2 minutes and supernatants stored at −20° C. until analysis by LCMS.

C/C=C\C=C/CC/C=C/C=C/C(=O)NCC(C)C [alkylamide 3, (2E,4E,8Z,10Z)—N-isobutyldodeca-2,4,8,10-tetraenamide]
rate of alkylamide metabolism relative to the rate found for 6 [1]: seven fold higher
% of initial levels still present ([1]; human, 2 h, pH 7.4): 66±26%
consumption of 3 [2]: observed
% of the original concentration of 3 detected [3]: 83±4%

Reference: patent US9205121B2, “Echinacea formulation” (Integria Healthcare (Australia) PTY LTD, priority 2004, dated 2015)
